Results taken from patent EP4563571A1, “PRMT5 INHIBITORS” (Beijing Earthwise Technology Co., Ltd., priority 2022, dated 2024).

System: HCT116^MTAP Deletion cells
Assay: Anti-proliferation assay on cells (Cell-Titer Glo, 10 days)
Format: cell-based
Settings: 240 h, HCT116^MTAP Deletion cells, 10 days incubation, CTG readout; read-out: HCT116^MTAP Deletion GI50
Experimental: HCT116^MTAP Deletion cells were from Pharmaron (China); HCT116 cells were from ATCC; McCoy's 5A medium was purchased from Invitrogen (USA); penicillin-streptomycin and fetal bovine serum were purchased from Gibco (USA); a 384-well plate was purchased from PerkinElmer (USA); and Cell-Titer Glo reagent was purchased from Promega (USA).
Compound dissolution: All the compounds were dissolved in dimethyl sulfoxide (DMSO) and then stored. The compounds were stored at room temperature in a dry condition for 3 months for short term storage or at -20 °C for long term storage.
Cell culture and passaging
The cells were cultured strictly in accordance with ATCC requirements. The cell culture medium (McCoy's 5A medium + 10% fetal bovine serum + 1% penicillin + streptomycin) was transferred to a 15 mL centrifuge tube and centrifuged at 1000 rpm for 5 min. The supernatant was removed. The cells were resuspended with complete culture medium, inoculated into a culture dish at the required density, and cultured in an incubator at 37 °C, 95% humid air, and 5% carbon dioxide. The culture medium was replenished or the cells were passaged every 2-3 days depending on the cell growth condition.
Cell proliferation activity assay
When the confluency of cells in the culture dish reached about 90%, the cells were washed twice with PBS, and then treated with trypsin to become single cells. The cells were counted, and 40µl of the cells was inoculated into each well of a 384-well plate (50 cells/well). The plate was equilibrated at 37 °C and 5% carbon dioxide for 10 to 15 minutes. The compounds were injected into the 384-well plate using Echo550, and positive control and negative control (0.1% DMSO) were set up. Each compound was subjected to a 3-fold dilution, resulting in 10 concentration gradients, in duplicate, and the content of DMSO was 0.1%. The 384-well plate was incubated in a cell culture incubator for 10 days.
Then, 40 µl of cell proliferation assay reagent (CTG) was added to the 384-well plate, and the plate was shaken to mix well. Then, the 384-well plate was incubated at 37 °C and 5% carbon dioxide in the dark for 30 minutes. The data were read using the Envision multifunctional microplate reader. […] According to the different drug concentrations and their corresponding inhibition rates, the GI50 curve was drawn using GraphPad 8.0 software. The data were analyzed, and the final IC50 value was obtained.

Row | GI50 [µM] | SMILES
1 | 0.1 to 1 | CN(C(=O)C(=O)Nc1cnc(N)c2c1COC2)C1CCOCc2cc(C(F)(F)F)ccc21 (stereo not shown) [Example 49]
2 | < 0.01 | Cn1ncc2c(NC(=O)C(=O)N(Cc3ccc(C(F)(F)F)cn3)Cc3ccnc4[nH]ccc34)cnc(N)c21 [Example 50]
3 | 0.01 to 0.1 | C[C@H](C1CC1)N(Cc1ccc(C(F)(F)F)cn1)C(=O)C(=O)Nc1cnc(N)c2c1cnn2C [Example 51]
4 | 0.1 to 1 | Cc1cc(NC(=O)C(=O)N(Cc2ccc(C(F)(F)F)cn2)CC23CC(C2)C3)cnc1N [Example 53]
5 | 0.01 to 0.1 | CCC(C)N(Cc1ccc(C(F)(F)F)cn1)C(=O)C(=O)Nc1cnc(N)c2c1COC2 (stereo not shown) [Example 54]
6 | 0.1 to 1 | Cc1cc(NC(=O)C(=O)N(Cc2ccc(C(F)(F)F)nn2)[C@H](C)c2ncccn2)cnc1N [Example 55]
7 | 0.01 to 0.1 | CN(C(=O)C(=O)Nc1cnc(N)c2c1COC2)C1COCc2cc(C(F)(F)F)ccc21 (stereo not shown) [Example 56]
8 | 0.1 to 1 | CCC(C)N(Cc1ccc(C(F)(F)F)nc1)C(=O)C(=O)Nc1cnc(N)c(C)c1 (stereo not shown) [Example 57]
9 | > 10 | CCC(C)N(Cc1cnc(C(F)(F)F)nc1)C(=O)C(=O)Nc1cnc(N)c(C)c1 (stereo not shown) [Example 58]
10 | 0.01 to 0.1 | CCC(C)N(Cc1ccc(C(F)(F)F)cc1)C(=O)C(=O)Nc1cnc(N)c(C)c1 (stereo not shown) [Example 59]
11 | 0.1 to 1 | Cc1cc(NC(=O)C(=O)N(Cc2ccc(C(F)(F)F)cn2)C2CCCc3cn[nH]c32)cnc1N (stereo not shown) [Example 60]
12 | 0.1 to 1 | CCC(C)N(Cc1ccc(Cl)cn1)C(=O)C(=O)Nc1cnc(N)c(C)c1 (stereo not shown) [Example 61]
13 | 0.01 to 0.1 | CCOc1ccc(CN(C(=O)C(=O)Nc2cnc(N)c(C)c2)C(C)CC)nc1 (stereo not shown) [Example 62]
14 | 0.01 to 0.1 | Nc1ncc(NC(=O)C(=O)N(Cc2ccc(C(F)(F)F)cn2)Cc2ccnc3[nH]ccc23)c2c1COC2 [Example 64]
15 | 0.1 to 1 | CCC(C)N(Cc1ccc(C(F)(F)F)nn1)C(=O)C(=O)Nc1cnc(N)c(C)c1 (stereo not shown) [Example 65]
16 | 1 to 10 | CCC(C)N(Cc1ncc(C)s1)C(=O)C(=O)Nc1cnc(N)c(C)c1 (stereo not shown) [Example 66]
17 | 1 to 10 | CN(Cc1ccc2sc(C3CCOCC3)nc2c1)C(=O)C(=O)Nc1cnc(N)c2c1COC2 [Example 67]
18 | 0.01 to 0.1 | CC(c1cscn1)N(Cc1ccc(C(F)(F)F)cn1)C(=O)C(=O)Nc1cnc(N)c2c1COC2 (stereo not shown) [Example 68]

Same assay, conditions: HCT116^MTAP Deletion cells, 10 days incubation, CTG readout; read-out: HCT116^MTAP Deletion GI50

Row | GI50 [µM] | SMILES
19 | 0.01 to 0.1 | CCOc1ccc(CN(C(=O)C(=O)Nc2cnc(N)c(C)c2)[C@H](C)c2ncccn2)nn1 [Example 35]
20 | 0.01 to 0.1 | Cc1cc(NC(=O)C(=O)N(Cc2ccc(C(F)(F)F)cn2)[C@H](C)C2CC2)cnc1N [Example 36]
21 | > 10 | C[C@H](c1ncccn1)N(Cc1ccc(C(F)(F)F)cn1)C(=O)C(=O)Nc1cnc(N)c2cncn12 [Example 38]
22 | 0.1 to 1 | C[C@H](C1CC1)N(Cc1ccc(C(F)(F)F)cn1)C(=O)C(=O)Nc1cnc(N)c2c1COC2 [Example 39]
23 | 0.1 to 1 | Nc1ncc(NC(=O)C(=O)N(Cc2ccc(C(F)(F)F)cn2)CC2CC2)c2c1COC2 [Example 40]
24 | 0.1 to 1 | Nc1ncc(NC(=O)C(=O)N(Cc2ccc(C(F)(F)F)cn2)CC2CCC2)c2c1COC2 [Example 41]
25 | 0.1 to 1 | Cc1cc(NC(=O)C(=O)N(Cc2ccc(C3=CCOCC3)nn2)[C@H](C)c2ncccn2)cnc1N [Example 42]
26 | < 0.01 | Cn1ncc2c(NC(=O)C(=O)N(Cc3ccc(C(F)(F)F)cn3)CC3CC3)cnc(N)c21 [Example 43]
27 | 0.01 to 0.1 | CC(c1cscn1)N(Cc1ccc(C(F)(F)F)cn1)C(=O)C(=O)Nc1cnc(N)c2c1cnn2C (stereo not shown) [Example 44]
28 | 0.01 to 0.1 | CCC(C)N(Cc1ccc(C(F)(F)F)cn1)C(=O)C(=O)Nc1cnc(N)c2c1cnn2C (stereo not shown) [Example 46-P2]
29 | < 0.01 | CN(C(=O)C(=O)Nc1cnc(N)c2c1cnn2C)C1COCc2cc(C(F)(F)F)ccc21 (stereo not shown) [Example 48]
30 | < 0.01 | CCC(C)N(Cc1ccc(C(F)(F)F)cn1)C(=O)C(=O)Nc1cnc(N)c2c1cnn2C (stereo not shown) [Example 52]
31 | 0.1 to 1 | CCC(C)N(Cc1ccc(OCC(F)(F)F)nn1)C(=O)C(=O)Nc1cnc(N)c(C)c1 (stereo not shown) [Example 63]
